Measurements as given in paper PMC11435438, “Cyclin-Dependent Kinase 8 Represents a Positive Regulator of Cytomegalovirus Replication and a Novel Host Target for Antiviral Strategies” (Pharmaceutics, 2024).
Like-named read-outs stand apart in the source and are kept apart here.

Key:
HCMV Merlin-GFP [1] = assay: HCMV Merlin-GFP replication assay in HFFs; type: cell-based, human cytomegalovirus; conditions: Human betaherpesvirus 5, HFF, read-out: EC50 Merlin-GFP
Method: (§1) (i.e., 1 × TCID25/7d). Immediately after virus adsorption, the cells were treated with antiviral compounds or solvent control (DMSO). Infections were performed in biological quadruplicates, or as indicated for individual experiments. The cells were fixed by the addition of 150 µL 10% formalin/well 7 d p.i. (Merlin-GFP 14 d p.i.), and washed with PBS. For GFP or YFP quantitation, the Victor X4 microplate reader (PerkinElmer, Waltham, MA, USA) was primarily used, or as a very sensitive alternative, the ImageXpress® Pico device (Molecular Devices LLC, San Jose, CA, USA). Mean EC50 values of antiviral efficacy were calculated on the basis of three experimental replicates or as indicated (measurement of fluorescence values in quadruplicate), and percentage values were provided relative to the solvent control (DMSO).

RCMV-mCherry = RCMV-mCherry replication assay in REFs; type: cell-based, rat cytomegalovirus; conditions: in Rattus norvegicus, read-out: EC50 RCMV
Description: Similarly, 2 × 10^4 primary embryonic guinea pig fibroblasts GPEFs/96-well, or 1.35 × 10^4 HFFs/96-well, or 2 × 10^4 rat REFs/96-well, or 2 × 10^4 murine MEFs/96-well, were cultivated for infection with GPCMV-GFP, RhCMV-GFP, ChCMV, RCMV-mCherry, or MCMV-GFP, respectively (all approx. MOI of 0.01 referring to 1 × TCID25), and were used for the assessment of antiviral drug activity. To this end, cells were fixed 7 d p.i. (RCMV-mCherry 4 d p.i.), before GFP or mCherry expression was quantified using the Victor X4 microplate reader, or other viral replication markers were measured as explained for the individual experiments. ChCMV replication in HFFs was monitored and quantified by the use of Anti-Cytomegalovirus Antibody Alexa Fluor™ 488. For immunofluorescence staining with Anti-Cytomegalovirus Antibody Alexa Fluor™ 488 (Sigma Aldrich, St. Louis, MO, USA; solution in PBS with 1% FCS), the infected cells were fixed at 7 d p.i. with 10% formalin and permeabilized with 0.2% Triton-x-100. Cell nuclei were counterstained using Höchst dye to be measured using the ImageXpress Pico (Molecular Devices, LLC, San Jose, CA, USA). Mean EC50 values of antiviral efficacy were calculated on the basis of three experimental replicates or as indicated (measurement of fluorescence values in quadruplicate), and percentage values were provided relative to the solvent control (DMSO).

HCMV TB40-YFP = HCMV TB40-YFP replication assay in HFFs; type: cell-based, human cytomegalovirus; conditions: Human betaherpesvirus 5, HFF, read-out: EC50 TB40-YFP
Method: as §1

HCMV Merlin-GFP [2] = assay: HCMV Merlin-GFP replication assay in U373 cells; type: cell-based, human cytomegalovirus; conditions: Human betaherpesvirus 5, U373 MG, read-out: EC50 Merlin-GFP
Method: as §1

[3] = Neutral Red uptake cell viability assay in mock-infected U373 cells; type: cell-based; conditions: human, read-out: CC50 Mock-inf.
Method: To address cell viability after compound treatment, a NR uptake assay was performed. Uninfected cells were seeded at equal numbers as for antiviral replication assays and treated with compounds or solvent control. The treatment was performed for HFFs (7 d), U373 (14 d), A549 (3 d), J-Jhan (14 d), and non-dox-induced iSLK.219 cells (3 d). At the end of the treatment period, 40 µg/mL of Neutral Red (NR) was added and incubated for 2–4 h at 37 °C, before the NR-containing supernatant was removed. Cells were destained using a solution containing 50% ethanol, 1% acetic acid, and 49% water. NR fluorescence was quantified using the Victor X4 microplate reader (PerkinElmer, Waltham, MA, USA) (560/630 nm). For the AB cell viability assay, which was also used to quantify virus-induced cytopathogenicity (particularly in the case of GPCMV in GPEFs), cells were seeded at equal numbers as for antiviral replication assays and incubated with a medium containing 25 ng/mL AB (resazurin; Ann Arbor, MI, USA), incubated for 6 h at 37 °C, and used for measurement identical with NR.

[4] = mock-infected (uninfected) U373 cells

Cc1n[nH]c2ncc(C(=O)N3CCC[C@H]3c3ccc(Cl)cc3)cc12 [MSC-2530818]
EC50 (HCMV Merlin-GFP [1]): 5.55 ± 5.63 nM | EC50 (RCMV-mCherry): 4.87 ± 4.67 nM | EC50 (HCMV TB40-YFP): 4.97 ± 3.3 nM | EC50 (HCMV Merlin-GFP [2]): 4.47 ± 4.4 nM | CC50 at 14 d [3, 4]: 87000 ± 6000 nM

CN(C)C(=O)Cn1cc(-c2ccc(-c3cncc4ccccc34)cc2)cn1 [BI-1347]
EC50 (HCMV Merlin-GFP [1]): 0.54 ± 0.99 nM | EC50 (RCMV-mCherry): 1.08 ± 1.49 nM | EC50 (HCMV TB40-YFP): 2.83 ± 2.3 nM | EC50 (HCMV Merlin-GFP [2]): 1.4 ± 1.37 nM | CC50 at 14 d [3, 4]: > 100000 nM

Cn1ncc2cc(-c3cnc(N)c(Cl)c3N3CCC4(CCNC4=O)CC3)ccc21 [CCT-151921]
EC50 (HCMV Merlin-GFP [1]): 1.27 ± 1.17 nM | EC50 (RCMV-mCherry): 11.2 ± 22.7 nM | EC50 (HCMV TB40-YFP): 10 ± 6.33 nM | EC50 (HCMV Merlin-GFP [2]): 14.7 ± 16.3 nM | CC50 at 14 d ([3]; U373): > 100000 nM
